Source: patent publication US8835112B2, “Cell transdifferentiation into brown adipocytes” (Miami University, priority 2010, dated 2014)

Test system: HB-EGF and ADAM 12S co-expressing cells
Experiment: Inhibition of adipogenesis by KB-R7785 (Oil Red O staining, morphology)
Format: cell-based, mouse
Method: Cells were grown in the 60 mm culture dishes (Corning). After reaching a cell confluence of 50-70%, the cells were washed with 1.0 ml of PBS for three times, fixed with 1.0 ml of 10% formalin for 60 minutes at room temperature. Oil Red O stock stain solution was prepared by mixing 0.3 g oil red O in 100 ml of isopropanol overnight at room temperature and filtered by using Whatman #2 filter papers. The formalin was removed and the cells were washed with deionized water. The culture dishes were aspirated and added with 1.0 ml of 60% isopropanol working solution to incubate 5 minutes at room temperature. Oil Red O working solution was prepared by diluting 30 ml of the stock stain with 20 ml of distilled water, filtered with Whatman #1 filter papers into a Coplin jar, and covered with a lid immediately. The 60% working isopropanol was removed and the culture dishes were filled with 1.0 ml working solution of Oil Red O, incubated for 5 minutes at room temperature. The cells were rinsed with deionized water until fluid becomes clear, and counterstained with 1 ml of hematoxylin for 1 minute at room temperature. The hematoxylin was then removed from the wells, and the cells were rinsed with deionized water and imaged under a microscope (Olympus). […]

Structure (SMILES): CNC(=O)[C@@H](NC(=O)[C@H](CC(C)C)[C@H](C)C(=O)NO)c1ccccc1 [KB-R7785, [4-(N-hydroxyamino)-2R-isobutyl-3S-methylsuccinyl]-L-phenylglycine-N-methylamide]
- Reversal of brown adipocytes / adipocyte morphology (KB-R7785 10 μM, over 4 weeks, mouse fibroblasts stably transfected with ADAM 12S and HB-EGF): returned the brown adipocytes to mouse fibroblasts
- Oil Red O staining after incubation with inhibitor (KB-R7785 20 μM in culture media, 3 weeks incubation, cells positive for Oil Red O before): lack Oil Red O staining
